What all share (assay type): physicochemical
A short description of data set [1]: Fluorescence observed by infrared ray microscope on cotton gauze thread, with or without sodium distearoylphosphatidate/octyl glucoside solution (Example 1). The following applies: for Fluorescence intensity, No addition group: no DSPA/OG solution; for Fluorescence intensity, Addition group: sodium distearoylphosphatidate + octyl glucoside solution added. More on the design: key: +++: Definitely bright; ++: Bright.; +: Observable; ±: Slightly observable. Here is the method: Octyl glucoside (Dojindo Laboratories, 880 mg) was carefully added to phosphate buffered saline (10 ml, pH 7.4) and dissolved with stirring on a water bath at 40° C. Sodium distearoylphosphatidate (148.8 mg) was added to the resulting solution and dissolved with stirring over a water bath at 60° C., and then the solution was added with phosphate buffered saline up to a final volume of 20 ml. The solution was returned to room temperature and stored as frozen aliquots of 1 ml volume before use. The final concentrations of sodium distearoylphosphatidate and octyl glucoside in the solution were 10 mM and 150 mM, respectively.
The above diagnosis marker (54 μg) in the lyophilized state was added with 10% (v/v) dimethyl sulfoxide (DMSO)/phosphate buffered saline (20 μl, pH 7.4) and dissolved. The above solution of sodium distearoylphosphatidate and octyl glucoside (5 μl) was added to 5 μl of the resulting solution, which was warmed beforehand, and mixed by repeating careful suction and ejection using a micropipette to obtain a composition of the present invention in the form of an aqueous solution. By using an indocyanine green (ICG) solution, ICC-sulfo-OSu solution, and water (control) instead of the solution of the diagnosis marker, aqueous compositions were prepared in the same manner as described above.
BHSM-IR (Olympus Optical) was used as an infrared ray microscope that allows observation in visible light to near infrared light region. The microscope was equipped with an excitation light transmitting filter that transmits lights of 710-790 nm (Asahi Bunko) under the sample, and with an excitation light cutting filter that transmits lights of 810-920 nm (Asahi Bunko) over the sample. KP-MI from Hitachi Electronic Engineering was used as a CCD, and fluorescence caught by the CCD was taken into an image collecting apparatus (EVIP-230, Olympus Optical), and recorded in an image recording apparatus (S321S, Olympus Optical) via an amplification system (Olympus Optical).
5 μl of each of the samples was dropped onto a cotton gauze thread (1 cm) placed on an object glass, and images were observed under irradiation by ordinary light and infrared light using the above optical system. […] The recorded images were converted into final images through an image processing comprising the steps of integration of an original image, integration of a background image, formation of a subtraction image, formation of a filtering image, and contrast enhancement by using the above-mentioned apparatus. […] In the table, all of the concentrations indicate those calculated based on ICG concentration. […] In the figure, (a) represents the result obtained under irradiation of ordinary light, and (b) represents the result obtained under irradiation of infrared ray.

Data set [2] is described as follows: Fluorescence intensity enhancing effect versus octyl glucoside concentration (Example 3). To be noted: for Fluorescence wavelength / Fluorescence intensity: excitation 768 nm; for Fluorescence intensity: labeled anti-mucin antibody 83.3 nM, 50° C.; for Fluorescence intensity (standard): 1 ppm, λex=251 nm, λem=450 nm. Here is the method:
The final antibody concentration in the diagnostic markers was 83.3 nM, and the IOG-sulfo-OSu concentration was 1.33 μM. Fluorescence spectra of the samples were measured in the same manner as in Example 2. The slit width was 2 nm for each of excitation light and fluorescence.

A short description of data set [3]: Fluorescence spectrum of compositions of ICG-sulfo-OSu-labeled mouse anti-mucin antibody with fluorescence intensity enhancing agents (Example 2). The following applies: 1 ppm, λex=255 nm, λem=451 nm. Here is the method:
The above diagnostic marker in the form of lyophilized product obtained from the mouse anti-mucin antibody (100 μg) was added with 4.0 ml of phosphate buffered saline and dissolved. 1.5 ml of the resulting solution was added with 1.5 ml of a solution of the fluorescence intensity enhancing agent of the present invention, and then the mixture was warmed over a water bath at 50° C. to prepare a final sample. As a control, a solution was prepared in the same manner by adding 1.5 ml of phosphate buffered saline. The final antibody concentration in the diagnostic marker was 83.3 nM, and the ICG-sulfo-OSu concentration was 1.33 μM. Fluorescence spectrum of each sample was measured by using a Hitachi spectrophotometer 650-40. The slit width was 5 nm for each of excitation light and fluorescence.

The mark [4] stands for this setting: before the spectrum measurement.

The values that follow come from patent publication US20020028474A1, “Composition for immunohistochemical staining” (DAIICHI PURE CHEMICAL CO., LTD., priority 1996, published 2002).

Where a name gives a salt, the structure may show the parent alone.

Regarding `CC1(C)C(/C=C/C=C/C=C/C=C2\N(CCCCS(=O)(=O)[O-])c3ccc4ccccc4c3C2(C)C)=[N+](CCCCCC(=O)ON2C(=O)CC(S(=O)(=O)[O-])C2=O)c2ccc3ccccc3c21.[Na+]` (stereo not drawn) [ICG-sulfo-OSu, indocyanine green-N-hydroxysulfosuccinimide ester], in data set [1] (10 μg/ml in terms of ICG), the “Fluorescence intensity, No addition group” value is on record as “+” and the “Fluorescence intensity, Addition group” value was “+”. Also, in data set [1] (100 μg/ml in terms of ICG), the “Fluorescence intensity, No addition group” value was “±” and the “Fluorescence intensity, Addition group” value is “++”.

As to `CCCCCCCCO[C@@H]1O[C@H](CO)[C@@H](O)[C@H](O)[C@H]1O` [OG, octyl glucoside], the “shift of fluorescence wavelength to a longer wavelength region versus octyl glucoside concentration” value in data set [2] (ICG-sulfo-OSu labeled anti-mucin antibody) is on record as “sharp increases were observed at concentrations near the critical micelle concentration”. For the same molecule, the “dependence of fluorescence intensity on octyl glucoside concentration” value in data set [2] (ICG-sulfo-OSu labeled anti-mucin antibody, critical micelle concentration 25 mM) is “Sharp increases of fluorescence intensity were observed at concentrations near the critical micelle concentration”. The Fluorescence wavelength in data set [2] (OG 1.0 mM) is recorded as 806 nm; in data set [2] (OG 1.50 mM) it was 821 nm; in data set [2] (OG 5.0 mM), 804 nm; in data set [2] (OG 10.0 mM), 809 nm; in data set [2] (OG 20.0 mM), 817 nm; in data set [2] (OG 37.5 mM), 817 nm. In addition, the values for the Fluorescence wavelength in data set [2] (OG 50.0 mM), in data set [2] (OG 75.0 mM) and in data set [2] (OG 100 mM) were 820 nm, 816 nm and 816 nm, respectively. In addition, the Fluorescence intensity in data set [2] (OG 1.0 mM) amounted to 0.150; in data set [2] (OG 1.50 mM) it was 0.588; in data set [2] (OG 5.0 mM), 0.150; in data set [2] (OG 10.0 mM), 0.189; in data set [2] (OG 20.0 mM) it was 0.436; in data set [2] (OG 37.5 mM), 0.520. The Fluorescence intensity is recorded as 0.515 in data set [2] (OG 50.0 mM), 0.525 in data set [2] (OG 75.0 mM) and 0.600 in data set [2] (OG 100 mM).

Regarding `CC1(C)C(/C=C/C=C/C=C/C=C2\N(CCCCS(=O)(=O)O)c3ccc4ccccc4c3C2(C)C)=[N+](CCCCS(=O)(=O)[O-])c2ccc3ccccc3c21` [ICC, indocyanine green], in data set [1] (1 mg/ml in terms of ICG, fluorescence at 800 nm or more), the “Fluorescence intensity, No addition group” value is listed as “++”. For the same molecule, the “Fluorescence intensity, Addition group” value in data set [1] (1 mg/ml in terms of ICG) is given as “++”.

With `C=C[C@H]1C[N@@]2CC[C@H]1C[C@H]2[C@H](O)c1ccnc2ccc(OC)cc12` [quinine sulfate, reference compound], the “Fluorescence intensity (standard)” value in data set [3] (after the spectrum measurement) was found to be 69.5; in data set [3] (setting [4]), 68.0; in data set [2] (after the spectrum measurement), 96.0; in data set [2] (setting [4]), 100.0.
